Data published in patent US4277465A, “Adjuvant for promoting absorption of therapeutically active substances through the digestive tract” (Kyoto Yakuhin Kogyo Kabushiki Kaisha, priority 1978, dated 1981).
Values joined by “and” are separate entries in the source; they are usually repeats but may differ in a detail not shown here. Equal entries are not always repeated.

Columns and labels:
[1] = Stability in aqueous solution (half-life of enamine derivatives); assay type: physicochemical; conditions: pH 7.4 phosphate buffer, μ 0.15, 25° C., UV absorption spectrometry; "stable" = enamine structure retained even after 6 hours
Protocol: To examine the stability in water of the enamine derivatives (I) obtained above, some representative compounds were selected and their half-lives [t 0.5 (min.)] in pH 7.4 phosphate buffer (μ: 0.15, temp.: 25° C.) were determined by ultraviolet absorption spectrometry. In the Table, "stable" means that the enamine structure was retained even after 6 hours.

[2] = Rectal inulin dosage form with adjuvant, urinary recovery of inulin; assay type: in vivo, human; conditions: Lunt method
Protocol: (§1) The following dosage forms (dispersed in Witepsol H-15®) were rectally administered to dogs and humans to measure the urinary recovery rates of inulin. […] The test was carried out by the Lunt method.

[3] = Rectal suppositories of AB-PC-Na with enamine derivative, concentration in blood; assay type: in vivo; conditions: AB-PC-Na 75mg, enamine derivative 60mg, base SB-W 1065mg, dog
Protocol: These suppositories were rectally administered to dogs and the absorbabilities of the active components were investigated by measuring the blood concentrations. The blood concentrations were measured in conformity with the biological assay method in the Antibiotic Standard of Japan. The cup method was employed with Sarcina lutea for penicillins and Bacillus subtilis for cephalosporins.

[4] = Rectal ointment of CEX.H2O with enamine derivative, blood concentration; assay type: in vivo, rabbit; conditions: rectal ointment CEX.H2O 20%, enamine derivative 10%, dose 50 mg CEX.H2O/kg
Protocol: (§2) AB-PC and cephalexin (briefly, CEX), both of which are sparingly absorbed from the rectum, are also tested. Thus, enamine derivatives (I) and these antibiotics were used to prepare rectal ointments in accordance with established practice. The ointments were administered to rabbits to investigate the peak blood concentrations (μg/ml) and AUC (μg.min./ml).
Dose: 50 mg CEX . H2 O/kg

[5] = Rectal ointment of CET-Na with enamine derivative, blood concentration; assay type: in vivo, rabbit; conditions: for AUC / Peak blood concentration: CET, rectal ointment CET.Na 20%, enamine derivative 10%, dose 50 mg CET.Na/kg
Protocol: Cephalothin sodium (briefly CET-Na), a drug which is sparingly absorbed from the rectum, was selected for a test. Thus, CET-Na was dispersed in liquid paraffin-white vaseline base to prepare rectal ointment. The ointment was administered to rabbits by the rectal route. […] The blood concentration was measured in conformity with the biological assay method in the Antibiotic Standard of Japan. […]

[6] = Oral capsule of AB-PC sodium with adjuvant, blood concentration of AB-PC; assay type: in vivo; conditions: AB-PC sodium 15 mg/kg + Compound 3 10 mg/kg, one value per rabbit, sodium salt
Protocol: Ampicillin (briefly, AB-PC) sodium
Capsules each containing the above indicated amounts of components were prepared by the conventional procedure and administrered to 3 rabbits. Immediately thereafter, each animal was given 20 ml of water and the concentration of AB-PC in the blood was measured by the biological assay method. In the figure, white circles represent AB-PC alone and black circles represent the capsule according to this invention.
The blood concentrations were measured in conformity with the Antibiotic Standard of Japan. The cup method was employed with Sarcina lutea.

[7] = Rectal ointment of AB-PC.Na with enamine derivative, blood concentration; assay type: in vivo, rabbit; conditions: rectal ointment AB-PC.Na 10%, enamine derivative 10%, dose 15 mg AB-PC.Na/kg
Protocol: as §2
Dose: 15mg AB-PC . Na/kg
Compounds 3, 5, 13 and 14 were used as said enamine derivatives (I) in Recipes 4, 5, 6 and 7, respectively.

[8] = Rectal inulin suppository with adjuvant, urinary recovery of inulin; assay type: in vivo, rabbit
Protocol: The above components were used to prepare a suppository in accordance with established pharmaceutical practice. The suppository was rectally administered to rabbits (body weights 2.0-2.5 kg) and the blood concentrations were determined.
The results, shown in FIG. 7, indicates the versatility of enamine derivative (I). The amount of inulin excreted in the urine was 18% of the dose administered.
as §1

[9] = Rectal inulin dosage form with adjuvant, urinary recovery of inulin; assay type: in vivo, dog; conditions: in Witepsol H-15, level of addition of enamine derivative 5%, Lunt method
Protocol: as §1

[10] = Rectal insulin suppository with Compound 3, blood glucose concentration (glucoseoxidase method); assay type: in vivo, rabbit; conditions: 3 I.U. insulin per animal + Compound 3 0.05 g in Witepsol H-15
Protocol: The test was conducted by the glucoseoxidase method. […] The largest depression of blood glucose from the pre-medication level was expressed in % response.

CCOC(=O)C=C(C)NCC(=O)[O-].[Na+] [Compound 1, N-(1-Methyl-2-ethoxycarbonylvinyl)glycine sodium salt]
half-life t 0.5 [1]: 3.7 min | % Urinary recovery ([2]; in Witepsol H-15, level of addition of enamine derivative 2%): 12% | Concentration in blood, 15 min. [3]: 1230 ng/mL | Concentration in blood, 30 min. [3]: 870 ng/mL | Concentration in blood, 60 min. [3]: 610 ng/mL | Concentration in blood, 120 min. [3]: 320 ng/mL

CCOC(=O)C=C(C)NCCCC(=O)[O-].[Na+] [Compound 2, N-(1-Methyl-2-ethoxycarbonylvinyl)-γ-aminobutyric acid sodium salt]
AUC [4]: 278 µg·min/mL | Peak blood concentration [4]: 6.7 µg/mL | AUC [5]: 315 µg·min/mL | Peak blood concentration [5]: 6.3 µg/mL | half-life t 0.5 [1]: 18.8 min

CCOC(=O)C=C(C)N[C@@H](C(=O)[O-])c1ccccc1.[Na+] [Compound 3, N-(1-Methyl-2-ethoxycarbonylvinyl)-D-phenylglycine sodium salt]
area under the blood-concentration curve (AUC) of AB-PC relative to AB-PC alone [6]: 1.52 times and 1.99 times and 1.73 times | AUC [7]: 270 µg·min/mL | Peak blood concentration [7]: 4.8 µg/mL | AUC [5]: 445 µg·min/mL | Peak blood concentration [5]: 14.4 µg/mL | change in blood concentration of CET (in words) ([5]; rectal ointment CET-Na 20%, Compound 3 10%, dose 50 mg CET-Na/kg, FIG. 3): high CET level in the blood could by very quickly achieved | % Urinary recovery ([8]; inulin, rectal, in Witepsol H-15, level of addition of enamine derivative 10%, Lunt method): 8% | amount of inulin excreted in the urine ([8]; rectal suppository, inulin 0.25 g + Compound 3 0.05 g in Witepsol H-15): 18 % of the dose administered | % Urinary recovery [9]: 20% | half-life t 0.5 [1]: 26.1 min | % Urinary recovery ([2]; in Witepsol H-15, level of addition of enamine derivative 1%): 11% | reduction of blood glucose concentration from the pre-medication level [10]: about 50%

CCOC(=O)C(=CN[C@@H](C(=O)[O-])c1ccccc1)C(=O)OCC.[Na+] [Compound 5, N-[2,2-bis(ethoxycarbonyl)vinyl]-D-phenylglycine sodium salt]
AUC [7]: 149 µg·min/mL | Peak blood concentration [7]: 4.7 µg/mL | AUC [5]: 306 µg·min/mL | Peak blood concentration [5]: 6.1 µg/mL | half-life t 0.5 [1]: Stable

CCOC(=O)C=C(C)N1CCC[C@H]1C(=O)[O-].[Na+] [Compound 13, N-(1-Methyl-2-ethoxycarbonylvinyl)-L-proline sodium salt]
AUC [7]: 108 µg·min/mL | Peak blood concentration [7]: 2.6 µg/mL | AUC [4]: 733 µg·min/mL | Peak blood concentration [4]: 6.5 µg/mL | AUC [5]: 25 µg·min/mL | Peak blood concentration [5]: 2.5 µg/mL | half-life t 0.5 [1]: 3.1 min

CCOC(=O)C=C(C)NCCS(=O)(=O)[O-].[Na+] [Compound 14, N-(1-Methyl-2-ethoxycarbonylvinyl)taurine sodium salt]
AUC [7]: 239 µg·min/mL | Peak blood concentration [7]: 5.9 µg/mL | AUC [5]: 250 µg·min/mL | Peak blood concentration [5]: 7.8 µg/mL | half-life t 0.5 [1]: 24.0 min

CCOC(=O)C=C(C)NCC(=O)NCC(=O)[O-].[Na+] [Compound 15, N-(1-Methyl-2-ethoxycarbonylvinyl)glycylglycine sodium salt]
AUC [5]: 102 µg·min/mL | Peak blood concentration [5]: 1.8 µg/mL | half-life t 0.5 [1]: 31.8 min

CCOC(=O)C=C(C)NCCCC[C@H](NC(C)=CC(=O)OCC)C(=O)[O-].[Na+] [Compound 17, N,N'-Bis(1-methyl-2-ethoxycarbonylvinyl)-L-lysine sodium salt]
AUC [5]: 396 µg·min/mL | Peak blood concentration [5]: 8.7 µg/mL | half-life t 0.5 [1]: 22.9 min
